According to paper PMC11045757, “Group 3 medulloblastoma transcriptional networks collapse under domain specific EP300/CBP inhibition” (Nature Communications, 2024):

System: 460 barcoded cancer cell lines
Test: PRISM pooled barcoded cancer cell line growth screen, 10-point dose-response, 5 days, AUC
Assay type: cell-based
Design: scale not given here
Source text: Several small molecule inhibitors of distinct protein domains of EP300/CBP are available, though the majority target the histone acetyltransferase domain (HAT) or bromodomain (BRD)[5],[10],[21],[22]. […] We used these tools to investigate the relative contribution of the EP300/CBP BRD or HAT domain to tumor cell growth (Fig. 1a). To do so, we performed 10-point, dose-response growth assays using mixed pools of 460 barcoded cancer cell lines, over five days of treatment in vitro[33],[34]. Growth was measured using an area-under-the-curve (AUC) approach (Supplementary Table 1, Supplementary Fig. 1a). […] Given potential differences in compound penetration and solubility, and to compare the relative cell line and tumor-specific effects of these two compounds in assays performed non-simultaneously, we performed a median normalization of each dataset (Supplementary Table 2).

SMILES: CNC(=O)Nc1ccc2c(c1)CCC21OC(=O)N(CC(=O)N(Cc2ccc(F)cc2)C(C)C(F)(F)F)C1=O (stereo not shown) [Compound A485]
- AUC (SH4, Melanoma): 0.7491
- AUC (SH10TC, Gastric Cancer): 0.9483
- AUC (SHP77, Lung Cancer): 1
- AUC (SIMA, Neuroblastoma): 0.7689
- AUC (SJSA1, Osteosarcoma): 0.6938
- AUC (SKES1, Ewing Sarcoma): 0.5686
- AUC (SKHEP1, Liver Cancer): 0.9176
- AUC (SKM1, AML): 0.6691
- AUC (SKMEL30, Melanoma): 0.8035
- AUC (SKMES1, Lung Cancer): 0.6858
- AUC (SKMM2, Myeloma): 0.9139
- AUC (SKNAS, Neuroblastoma): 0.7465
- AUC (SKNBE2, Neuroblastoma): 0.711
- AUC (SKNDZ, Neuroblastoma): 0.8727
- AUC (SKNEP1, Ewing Sarcoma): 0.6902
- AUC (SKNMC, Ewing Sarcoma): 0.8779
- AUC (SKNO1, AML): 0.8126
- AUC (SKNSH, Neuroblastoma): 0.7441
- AUC (SKOV3, Ovarian Cancer): 0.768
- AUC (SKUT1, Leiomyosarcoma): 0.8397
- AUC (SNU1, Gastric Cancer): 1
- AUC (SNU46, Head and Neck Cancer): 0.6485
- AUC (SNU61, Colon/Colorectal Cancer): 0.8187
- AUC (SNU81, Colon/Colorectal Cancer): 0.8344
- AUC (SNU182, Liver Cancer): 0.5802
- AUC (SNU201, Glioblastoma): 0.8259
- AUC (SNU213, Pancreatic Cancer): 0.8601
- AUC (SNU216, Gastric Cancer): 0.8096
- AUC (SNU245, Bile Duct Cancer): 0.7564
- AUC (SNU398, Liver Cancer): 0.8358
- AUC (SNU407, Colon/Colorectal Cancer): 0.7333
- AUC (SNU423, Liver Cancer): 0.7846
- AUC (SNU449, Liver Cancer): 0.9343
- AUC (SNU466, Glioblastoma): 0.8159
- AUC (SNU478, Bile Duct Cancer): 0.7556
- AUC (SNU601, Gastric Cancer): 0.8298
- AUC (SNU668, Gastric Cancer): 0.8689
- AUC (SNU685, Endometrial/Uterine Cancer): 0.8766
- AUC (SNU719, Gastric Cancer): 0.9255
- AUC (SNU869, Bile Duct Cancer): 0.9315
- AUC (SNU878, Liver Cancer): 0.7163
- AUC (SNU886, Liver Cancer): 0.7207
- AUC (SNU1041, Head and Neck Cancer): 0.836
- AUC (SNU1066, Head and Neck Cancer): 0.7809
- AUC (SNU1076, Head and Neck Cancer): 0.7922
- AUC (SNU1077, Endometrial/Uterine Cancer): 0.8978
- AUC (SNU1079, Bile Duct Cancer): 0.8976
- AUC (SNU1105, Glioblastoma): 0.823
- AUC (SNU1196, Bile Duct Cancer): 0.8191
- AUC (SNU1214, Head and Neck Cancer): 0.7713
- AUC (SNUC2A, Colon/Colorectal Cancer): 1
- AUC (SNUC4, Colon/Colorectal Cancer): 0.6416
- AUC (SQ1, Lung Cancer): 0.8347
- AUC (SR786, Lymphoma): 0.6609
- AUC (STM9101, Rhabdoid): 0.89
- AUC (SUDHL8, Lymphoma): 0.5295
- AUC (SW48, Colon/Colorectal Cancer): 1
- AUC (SW579, Thyroid Cancer): 0.7659
- AUC (SW620, Colon/Colorectal Cancer): 0.9454
- AUC (SW780, Bladder Cancer): 0.7867
- AUC (SW837, Colon/Colorectal Cancer): 0.675
- AUC (SW900, Lung Cancer): 0.774
- AUC (SW948, Colon/Colorectal Cancer): 0.5667
- AUC (SW1088, Glioma): 0.7952
- AUC (SW1116, Colon/Colorectal Cancer): 0.9547
- AUC (SW1463, Colon/Colorectal Cancer): 0.6958
- AUC (SW1710, Bladder Cancer): 0.7157
- AUC (T3M10, Lung Cancer): 0.9036
- AUC (T24, Bladder Cancer): 0.9232
- AUC (T47D, Breast Cancer): 0.9704
- AUC (TALL1, T-acute leukemia): 0.6985
- AUC (TC71, Ewing Sarcoma): 0.9262
- AUC (TC106, Ewing Sarcoma): 0.5807
- AUC (TC205, Ewing Sarcoma): 0.554
- AUC (TCCPAN2, Pancreatic Cancer): 0.884
- AUC (TCCSUP, Bladder Cancer): 0.8481
- AUC (TE1, Esophageal Cancer): 0.8516
- AUC (TE4, Esophageal Cancer): 0.8986
- AUC (TE5, Esophageal Cancer): 0.8355
- AUC (TE6, Esophageal Cancer): 0.6845
- AUC (TE9, Esophageal Cancer): 0.9819
- AUC (TE10, Esophageal Cancer): 0.7055
- AUC (TE11, Esophageal Cancer): 0.5915
- AUC (TE15, Esophageal Cancer): 0.6898
- AUC (TE617T, Rhabdomyosarcoma): 0.7575
- AUC (TF1, AML): 0.4573
- AUC (TM87, Rhabdoid): 0.6723
- AUC (TOLEDO, Lymphoma): 0.9051
- AUC (TOV21G, Ovarian Cancer): 0.8786
- AUC (TT2609C02, Thyroid Cancer): 0.6078
- AUC (TT, Thyroid Cancer): 0.6637
- AUC (TTC442, Rhabdomyosarcoma): 0.8716
- AUC (TTC549, Rhabdoid): 0.683
- AUC (TTC642, Rhabdoid): 0.604
- AUC (TTC1240, Rhabdoid): 0.6274
- AUC (TYKNU, Ovarian Cancer): 0.7341
- AUC (U2OS, Osteosarcoma): 0.9217
- AUC (U266B1, Myeloma): 0.8925
- AUC (U937, AML): 0.6875
- AUC (UACC62, Melanoma): 0.717
- AUC (UACC257, Melanoma): 0.8193
- AUC (UBLC1, Bladder Cancer): 0.7124
- AUC (UMUC1, Bladder Cancer): 0.6454
- AUC (UW228, Medulloblastoma): 1
- AUC (VMCUB1, Bladder Cancer): 0.6611
- AUC (VMRCRCW, Kidney Cancer): 0.8987
- AUC (VMRCRCZ, Kidney Cancer): 0.5968
- AUC (WM88, Melanoma): 0.5816
- AUC (WM793, Melanoma): 0.8497
- AUC (WM983B, Melanoma): 0.7071
- AUC (YAPC, Pancreatic Cancer): 0.8726
- AUC (YD10B, Head and Neck Cancer): 0.7608
- AUC (YD15, Head and Neck Cancer): 0.6259
- AUC (YD38, Head and Neck Cancer): 0.5959
- AUC (YH13, Glioblastoma): 0.7751
